Converted amounts (≈) assume the structure as drawn.
Columns and labels:
Type in all cases: functional
Candida albicans [1] = experiment: Antifungal activity against Candida albicans isolated from HSCT recipient 031 with acute or chronic GVHD mouth after 109 days prophylaxis by broth microdilution method
Nakaseomyces glabratus [2] = experiment: Antifungal activity against 16 days cultured Candida glabrata isolated from invasive fungal infected subject blood after 17 days of prophylaxis by broth microdilution method
Nakaseomyces glabratus [3] = experiment: Antifungal activity against 1 day cultured Candida glabrata isolated from HSCT recipient with acute or chronic GVHD mouth receiving antifungal therapy for 143 days after 116 days of prophylaxis by broth microdilution method
Candida albicans [4] = experiment: Antifungal activity against Candida albicans isolated from HSCT recipient 262 with acute or chronic GVHD mouth after 115 days prophylaxis by broth microdilution method
Nakaseomyces glabratus [5] = experiment: Ratio of URA3 gene expression in Candida glabrata isolated from patient 186 receiving antifungal drug to URA3 gene expression in Candida glabrata isolated from patient 186 by RT-PCR analysis
Nakaseomyces glabratus [6] = experiment: Ratio of URA3 gene expression in Candida glabrata isolated from patient 975 receiving antifungal drug to URA3 gene expression in Candida glabrata isolated from patient 975 by RT-PCR analysis
Candida albicans [7] = experiment: Antifungal activity against Candida albicans isolated from HSCT recipient 042 with acute or chronic GVHD mouth after 112 days prophylaxis by broth microdilution method
Nakaseomyces glabratus [8] = experiment: Antifungal activity against Candida glabrata isolated from HSCT recipient 497 with acute or chronic GVHD mouth receiving antifungal drug after 114 days prophylaxis by broth microdilution method
Nakaseomyces glabratus [9] = experiment: Ratio of ERG11 gene expression in Candida glabrata isolated from patient 186 receiving antifungal drug to ERG11 gene expression in Candida glabrata isolated from patient 186 by RT-PCR analysis
Nakaseomyces glabratus [10] = experiment: Ratio of ERG11 gene expression in Candida glabrata isolated from patient 975 receiving antifungal drug to ERG11 gene expression in Candida glabrata isolated from patient 975 by RT-PCR analysis
Nakaseomyces glabratus [11] = experiment: Ratio of CDR2 gene expression in Candida glabrata isolated from patient 186 receiving antifungal drug to CDR2 gene expression in Candida glabrata isolated from patient 186 by RT-PCR analysis
Candida tropicalis = experiment: Antifungal activity against 9 days cultured Candida tropicalis isolated from neutropenic subject with AML or MDS stool receiving antifungal therapy for 45 days after 24 days of prophylaxis by broth microdilution method
Nakaseomyces glabratus [12] = experiment: Ratio of CDR1 gene expression in Candida glabrata isolated from patient 186 receiving antifungal drug to CDR1 gene expression in Candida glabrata isolated from patient 186 by RT-PCR analysis
Nakaseomyces glabratus [13] = experiment: Antifungal activity against Candida glabrata isolated from neutropenic subject 1187 with AML or MDS stool after 22 days prophylaxis by broth microdilution method; details: 528 h
Nakaseomyces glabratus [14] = experiment: Ratio of CDR2 gene expression in Candida glabrata isolated from patient 975 receiving antifungal drug to CDR2 gene expression in Candida glabrata isolated from patient 975 by RT-PCR analysis
Nakaseomyces glabratus [15] = experiment: Antifungal activity against Candida glabrata isolated from neutropenic subjects with AML or MDS prior to initiation of fluconazole therapy by broth microdilution method
Candida albicans [16] = experiment: Antifungal activity against Candida albicans isolated from HSCT recipients with acute or chronic GVHD receiving fluconazole assessed as maximum MIC by broth microdilution method
Nakaseomyces glabratus [17] = experiment: Antifungal activity against Candida glabrata isolated from neutropenic subjects with AML or MDS prior to initiation of fluconazole therapy assessed as maximum MIC by broth microdilution method
Nakaseomyces glabratus [18] = experiment: Antifungal activity against Candida glabrata isolated from neutropenic subjects with AML or MDS prior to initiation of posaconazole therapy assessed as maximum MIC by broth microdilution method
Nakaseomyces glabratus [19] = experiment: Antifungal activity against 19 days cultured Candida glabrata isolated from HSCT recipient with acute or chronic GVHD mouth after 17 days of prophylaxis by broth microdilution method
Nakaseomyces glabratus [20] = experiment: Ratio of CDR1 gene expression in Candida glabrata isolated from patient 975 receiving antifungal drug to CDR1 gene expression in Candida glabrata isolated from patient 975 by RT-PCR analysis
Nakaseomyces glabratus [21] = experiment: Antifungal activity against Candida glabrata isolated from HSCT recipient 491 with acute or chronic GVHD mouth after 112 days prophylaxis by broth microdilution method
Candida albicans [22] = experiment: Antifungal activity against Candida albicans isolated from HSCT recipient 031 with acute or chronic GVHD mouth receiving antifungal drug after 109 days prophylaxis by broth microdilution method
Pichia kudriavzevii = experiment: Antifungal activity against 16 days cultured Candida krusei isolated from neutropenic subject with AML or MDS stool receiving antifungal therapy for 19 days after 6 days of prophylaxis by broth microdilution method
Nakaseomyces glabratus [23] = experiment: Ratio of URA3 gene expression in Candida glabrata isolated from patient 807 receiving antifungal drug to URA3 gene expression in Candida glabrata isolated from patient 807 by RT-PCR analysis
Nakaseomyces glabratus [24] = experiment: Ratio of URA3 gene expression in Candida glabrata isolated from patient 491 receiving antifungal drug to URA3 gene expression in Candida glabrata isolated from patient 491 by RT-PCR analysis
Nakaseomyces glabratus [25] = experiment: Ratio of CDR1 gene expression in Candida glabrata isolated from patient 002 receiving antifungal drug to CDR1 gene expression in Candida glabrata isolated from patient 002 by RT-PCR analysis
Nakaseomyces glabratus [26] = experiment: Ratio of CDR1 gene expression in Candida glabrata isolated from patient 497 receiving antifungal drug to CDR1 gene expression in Candida glabrata isolated from patient 497 by RT-PCR analysis
Nakaseomyces glabratus [27] = experiment: Ratio of CDR1 gene expression in Candida glabrata isolated from patient 491 receiving antifungal drug to CDR1 gene expression in Candida glabrata isolated from patient 491 by RT-PCR analysis
Nakaseomyces glabratus [28] = experiment: Ratio of URA3 gene expression in Candida glabrata isolated from patient 497 receiving antifungal drug to URA3 gene expression in Candida glabrata isolated from patient 497 by RT-PCR analysis
Nakaseomyces glabratus [29] = experiment: Ratio of URA3 gene expression in Candida glabrata isolated from patient 002 receiving antifungal drug to URA3 gene expression in Candida glabrata isolated from patient 002 by RT-PCR analysis
Nakaseomyces glabratus [30] = experiment: Ratio of ERG11 gene expression in Candida glabrata isolated from patient 807 receiving antifungal drug to ERG11 gene expression in Candida glabrata isolated from patient 807 by RT-PCR analysis
Nakaseomyces glabratus [31] = experiment: Ratio of ERG11 gene expression in Candida glabrata isolated from patient 497 receiving antifungal drug to ERG11 gene expression in Candida glabrata isolated from patient 497 by RT-PCR analysis
Nakaseomyces glabratus [32] = experiment: Ratio of CDR2 gene expression in Candida glabrata isolated from patient 002 receiving antifungal drug to CDR2 gene expression in Candida glabrata isolated from patient 002 by RT-PCR analysis
Nakaseomyces glabratus [33] = experiment: Ratio of ERG11 gene expression in Candida glabrata isolated from patient 002 receiving antifungal drug to ERG11 gene expression in Candida glabrata isolated from patient 002 by RT-PCR analysis
Nakaseomyces glabratus [34] = experiment: Ratio of CDR1 gene expression in Candida glabrata isolated from patient 807 receiving antifungal drug to CDR1 gene expression in Candida glabrata isolated from patient 807 by RT-PCR analysis
Nakaseomyces glabratus [35] = experiment: Ratio of CDR2 gene expression in Candida glabrata isolated from patient 497 receiving antifungal drug to CDR2 gene expression in Candida glabrata isolated from patient 497 by RT-PCR analysis

Compound	MIC (Candida albicans [1]) [µg/mL]	MIC (Nakaseomyces glabratus [2]) [µg/mL]	MIC (Nakaseomyces glabratus [3]) [µg/mL]	MIC (Candida albicans [4]) [µg/mL]	MIC (Candida albicans [7]) [µg/mL]	MIC (Nakaseomyces glabratus [8]) [µg/mL]	MIC (Candida tropicalis) [µg/mL]	MIC (Nakaseomyces glabratus [13]) [µg/mL]	MIC50 (Nakaseomyces glabratus [15]) [µg/mL]	MIC90 (Nakaseomyces glabratus [15]) [µg/mL]	MIC (Candida albicans [16]) [µg/mL]	MIC (Nakaseomyces glabratus [17]) [µg/mL]	MIC (Nakaseomyces glabratus [18]) [µg/mL]	MIC (Nakaseomyces glabratus [19]) [µg/mL]	MIC (Candida albicans [22]) [µg/mL]	MIC (Pichia kudriavzevii) [µg/mL]	also measured
CC[C@@H]([C@H](C)O)n1ncn(-c2ccc(N3CCN(c4ccc(OC[C@@H]5CO[C@@](Cn6cncn6)(c6ccc(F)cc6F)C5)cc4)CC3)cc2)c1=O [POSACONAZOLE]	< 0.015	> 8	0.5 (≈ 0.713 µM)	< 0.015	< 0.015	2 (≈ 2.85 µM)	< 0.015	0.5 (≈ 0.713 µM)	0.5 (≈ 0.713 µM)	2 (≈ 2.85 µM)	16	8	4	8 (≈ 11.4 µM)	< 0.015	0.25 (≈ 0.357 µM)	fold change (FC) (Nakaseomyces glabratus [5]): -1.4; fold change (FC) (Nakaseomyces glabratus [6]): 1.2; fold change (FC) (Nakaseomyces glabratus [9]): -1.4; fold change (FC) (Nakaseomyces glabratus [10]): 1.6; fold change (FC) (Nakaseomyces glabratus [11]): -1.45; fold change (FC) (Nakaseomyces glabratus [12]): -1.5; fold change (FC) (Nakaseomyces glabratus [14]): 1.5; fold change (FC) (Nakaseomyces glabratus [20]): 2.25; MIC (Nakaseomyces glabratus [21]): 0.25 µg/mL (≈ 0.357 µM)
CCC(C)n1ncn(-c2ccc(N3CCN(c4ccc(OCC5COC(Cn6cncn6)(c6ccc(Cl)cc6Cl)O5)cc4)CC3)cc2)c1=O (centres undefined) [ITRACONAZOLE]	0.03 (≈ 0.0425 µM)	> 8	1 (≈ 1.42 µM)	< 0.015	< 0.015	8 (≈ 11.3 µM)	0.03 (≈ 0.0425 µM)	1 (≈ 1.42 µM)	0.5 (≈ 0.709 µM)	2 (≈ 2.83 µM)	16	8	8	> 8	0.06 (≈ 0.085 µM)	0.25 (≈ 0.354 µM)	–
OC(Cn1cncn1)(Cn1cncn1)c1ccc(F)cc1F [FLUCONAZOLE]	16 (≈ 52.2 µM)	–	16 (≈ 52.2 µM)	0.25 (≈ 0.816 µM)	< 0.125	32 (≈ 104 µM)	0.5 (≈ 1.63 µM)	16 (≈ 52.2 µM)	8 (≈ 26.1 µM)	16 (≈ 52.2 µM)	64	64	32	> 64	128 (≈ 418 µM)	64 (≈ 209 µM)	fold change (FC) (Nakaseomyces glabratus [23]): 1.4; fold change (FC) (Nakaseomyces glabratus [24]): 1; fold change (FC) (Nakaseomyces glabratus [25]): 1.5; fold change (FC) (Nakaseomyces glabratus [26]): 1.3; fold change (FC) (Nakaseomyces glabratus [27]): 4.5; fold change (FC) (Nakaseomyces glabratus [28]): -1.2; fold change (FC) (Nakaseomyces glabratus [29]): -1.2; fold change (FC) (Nakaseomyces glabratus [30]): 1.1; fold change (FC) (Nakaseomyces glabratus [31]): -1.2; fold change (FC) (Nakaseomyces glabratus [32]): -1.2; fold change (FC) (Nakaseomyces glabratus [33]): -1.2; fold change (FC) (Nakaseomyces glabratus [34]): 4.3; fold change (FC) (Nakaseomyces glabratus [35]): -1.2

— ChEMBL document CHEMBL1687752, “Impact of antifungal prophylaxis on colonization and azole susceptibility of Candida species” (2009)
